Data set [1] addresses T1, TMEM16A (Homo sapiens, UniProt Q5XXA6).
T1 sequence (Q5XXA6 1-986): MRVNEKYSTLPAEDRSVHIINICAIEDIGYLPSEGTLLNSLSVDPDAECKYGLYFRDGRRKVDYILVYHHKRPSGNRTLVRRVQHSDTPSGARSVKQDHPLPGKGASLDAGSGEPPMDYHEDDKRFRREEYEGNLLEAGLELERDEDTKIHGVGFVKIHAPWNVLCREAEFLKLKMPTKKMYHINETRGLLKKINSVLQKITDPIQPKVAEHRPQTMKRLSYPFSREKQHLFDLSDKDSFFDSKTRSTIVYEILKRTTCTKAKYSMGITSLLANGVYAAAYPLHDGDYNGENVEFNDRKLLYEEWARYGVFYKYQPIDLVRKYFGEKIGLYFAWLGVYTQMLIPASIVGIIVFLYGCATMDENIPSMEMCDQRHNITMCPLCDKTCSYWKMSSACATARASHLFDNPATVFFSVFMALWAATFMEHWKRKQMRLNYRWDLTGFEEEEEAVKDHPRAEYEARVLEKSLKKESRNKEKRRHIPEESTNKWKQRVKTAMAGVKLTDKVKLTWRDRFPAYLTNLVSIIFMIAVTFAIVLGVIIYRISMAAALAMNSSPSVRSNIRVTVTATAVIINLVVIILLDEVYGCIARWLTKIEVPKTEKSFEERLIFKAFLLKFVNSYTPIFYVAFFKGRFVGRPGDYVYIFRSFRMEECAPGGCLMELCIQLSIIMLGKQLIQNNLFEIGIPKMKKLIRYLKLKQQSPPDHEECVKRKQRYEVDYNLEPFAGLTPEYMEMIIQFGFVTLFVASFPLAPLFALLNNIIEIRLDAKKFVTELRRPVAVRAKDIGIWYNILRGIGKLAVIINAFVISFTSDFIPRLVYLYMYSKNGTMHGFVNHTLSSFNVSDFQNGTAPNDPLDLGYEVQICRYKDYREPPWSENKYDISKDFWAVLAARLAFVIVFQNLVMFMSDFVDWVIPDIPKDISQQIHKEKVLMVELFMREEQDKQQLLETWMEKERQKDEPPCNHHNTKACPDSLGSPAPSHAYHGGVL
Description: TMEM16A functional fluorescence plate reader (FPR) assay, iodide influx in FRT cells with YFP. The class given is cell-based. As to conditions: TMEM16A-expressing FRT cells, compound 10 min before iodide/ATP. On the procedure: A high-throughput screening assay was previously developed to identify small molecule inhibitors of TMEM16A. […] The assay involved addition of test compounds to the cells for 10 min in a physiological chloride-containing solution, followed by addition of an iodide solution containing ATP. TMEM16A-facilitated iodide influx was determined from the initial time course of decreasing YFP fluorescence.
2-Acylamino-cycloalkylthiophene-3-carboxylic acid arylamides 6aa-6bw were initially evaluated for inhibition of TMEM16A anion channel function using a cell-based functional plate reader assay as reported.
Yields (%) are of the isolated or purified products. IC50 (μM) for inhibition of TMEM16A anion conductance using a fluorescence plate reader (FPR) assay.
Cell lines and culture. Fischer Rat Thyroid (FRT) cells stably co-expressing TMEM16A, TMEM16B and human wild-type CFTR and the halide-sensitive yellow fluorescent protein (YFP)-H148Q were cultured as described. […] For plate reader assays, cells were plated in black 96-well microplates (Corning-Costar Corp., New York, N.Y.) at a density of 20,000 cells per well and assayed 24-48 hours after plating.
TMEM16A functional assay. TMEM16A functional plate-reader assay was done as previously described. […] Test compounds (0.5 μl in DMSO) were added to each well at specified concentration. […] The initial rate of I− influx following each of the solution additions was computed from fluorescence data by nonlinear regression. TMEM16B activity was assayed similarly as described using FRT cells co-expressing YFP and TMEM16B.

Data set [2] concerns the target T1, TMEM16A. Nature of the data set: Short-circuit current assay in TMEM16A-expressing FRT cells. The class given is cell-based. An excerpt:
Measurements were done in FRT cells expressing TMEM16A.
(§1) Concentration-dependent inhibition of TMEM16A measured by short-circuit current assay; TMEM16B and non-TMEM16 anion conductance measured using a fluorescence plate reader assay using FRT and HT-29 cells respectively; cell viability measured in FRT null cells.
Short-circuit current measurement. Short-circuit current measurements were done as described. (See Piechowicz, K. A. et al., J Enzyme Inhib Med Chem 2016, 1-7.) Briefly, Snapwell inserts (Corning Costar, Corning, N.Y.) containing TMEM16A-expressing FRT cells were mounted in Ussing chambers (Physiological instruments, San Diego, Calif.). The hemichambers were filled with 5 ml of HCO3^− buffered solution (basolateral) and half-Cl^− solution (apical), and the basolateral membrane was permeabilized with 250 μg/ml amphotericin B. Solutions were bubbled with 95% O2/5% CO2 and maintained at 37° C., and short-circuit current was measured on a DVC-1000 voltage clamp (World Precision Instruments Inc., Sarasota, Fla.) using Ag/AgCl electrodes and 3 M KCl agar bridges.

Data set [3] deals with non-TMEM16A Ca2+-activated Cl- channel in HT-29 cells. Description: Non-TMEM16A CaCC plate reader assay in HT-29 cells expressing YFP. The class given is cell-based. As to conditions: Homo sapiens, non-TMEM16 anion conductance, fluorescence plate reader assay. On the procedure:
as §1
(§2) We further assayed the compound potency on endogenous non-TMEM16A. Ca^2+-activated Cl^− channel in HT-29 cells.
Plate reader assays of chloride channel function, CFTR inhibition was assayed as described. […] Activity of non-TMEM16A CaCC was assayed as described in HT-29 cells expressing YFP.

In data set [4] the test system is FRT null cells. Nature of the data set: Cytotoxicity by Alamar Blue assay in FRT cells. The note with it: 8 h. The class given is cell-based, rat. On the procedure:
as §1, §2
Cytotoxicity. FRT cells were cultured overnight in black 96-well Costar microplates and incubated with 5 μM test compounds for 8 h. Cytotoxicity was measured by Alamar Blue assay (Invitrogen, Carlsbad, Calif.) as per the manufacturer's instructions.

The subject of data set [5] is SW-480 cells. Nature of the data set: SW-480 cell proliferation, AlamarBlue after 72 h. In kind it is cell-based. The note with it: Homo sapiens, SW480; AlamarBlue after 72 h of drug treatment; read-out: IC50 inhibition of SW-480 cell proliferation. As for the experimental part:
Compounds according to the present disclosure (structures shown in FIG. 5B) were tested for their inhibitory effect on proliferation of SW-480 cell line.
SW-480 cells were cultured on plastic in Leibovitz L15 medium supplemented with 10% fetal bovine serum, 2 mM L-glutamine, 100 units/mL penicillin, and 100 μg/mL streptomycin. The cells were incubated at 37° C. without CO2.
SW-480 cells were plated into black 96-well microplates (Corning-Costar Corp., New York, N.Y.) at 10% seeding. The cells were treated with test compounds dissolved in DMSO in serial dilution while maintaining the final concentration of DMSO at 0.5%. Plated cells were then incubated for 72 h at 37° C. Cell proliferation was quantified using the AlamarBlue assay (Invitrogen, Carlsbad, Calif.) as per the manufacturer's instructions. Data was normalized against untreated control cells that were lysed for 10 minutes using Triton-X100 (0.1% in PBS).
(Alamar Blue is a resazurin reagent that responds to reducing activity.)

pIC50: −log10 of the molar value. Values joined by “and” are separate entries in the source; they are usually repeats but may differ in a detail not shown here. Equal values may be shown once.

In the case of `Cc1ccccc1NC(=O)c1c(NC(=O)C(F)(F)F)sc2c1CCCCC2` [Compound 6aa, 2-(2,2,2-Trifluoro-acetylamino)-5,6,7,8-tetrahydro-4H-cyclohepta[b]thiophene-3-carboxylic acid o-tolylamide], the pIC50 was 6.38 in data set [1], 6.59 in data set [2], 5.40 in data set [3] and 6.02 in data set [5]. Further, in data set [4], the “Cellular survival % at 5 μM” value was determined as 99%.

For `Cc1ccccc1NC(=O)c1c(NC(=O)C(F)(F)Br)sc2c1CCCCC2` [Compound 6bm, 2-(2-Bromo-2,2-difluoro-acetylamino)-5,6,7,8-tetrahydro-4H-cyclohepta[b]thiophene-3-carboxylic acid o-tolylamide], the pIC50 is 6.74 to 7.10 and 7.08 in data set [1]; 7.52 in data set [2]; 5.15 in data set [5]. The “Cellular survival % at 5 μM” value in data set [4] came to 97%.

(Values after patent US11358947B2, “Substituted 2-acylamino-cycloalkylthiophene-3-carboxylic acid arylamides as inhibitors of calcium-activated chloride channel TMEM16A” (THE REGENTS OF THE UNIVERSITY OF CALIFORNIA, priority 2017, dated 2022).)
